Experimental data from ChEMBL document CHEMBL5365473, “Novel Sulfonylurea-Based NLRP3 Inflammasome Inhibitor for Efficient Treatment of Nonalcoholic Steatohepatitis, Endotoxic Shock, and Colitis” (J Med Chem, 2023).
The source made the active and inactive calls. The rule behind the calls is not given here.

Experiments:
[1] = Effect on immune cell numbers in MCS diet-fed C57BL/6 mouse assessed as effect on F4/80 expression at 40 mg/kg, po administered via gavage for 5 weeks by immunofluorescence staining based analysis; format: toxicity, organism-based; settings: in vivo, 840 h
[2] = system: Mus musculus; assay: Antiinflammatory activity against MCD diet-induced NASH C57BL/6 mouse model assessed as reduction in liver steatosis at 40 mg/kg, po administered via gavage for 5 weeks by Masson's trichrome staining based analysis; format: functional, organism-based
[3] = target: NACHT, LRR and PYD domains-containing protein 3 (Mus musculus, UniProt Q8R4B8); assay: Inhibition of NLRP3 inflammasome in mouse […] cells assessed as inhibition of LPS/ATP-induced IL-1 beta secretion primed with LPS for 4.5 hs followed by incubation with compound for 30 mins and later stimulation with ATP for 30 mins by ELISA; format: cell-based, J774.A1
Sequence of NACHT, LRR and PYD domains-containing protein 3 (Q8R4B8 whole entry, the tested form may be a part): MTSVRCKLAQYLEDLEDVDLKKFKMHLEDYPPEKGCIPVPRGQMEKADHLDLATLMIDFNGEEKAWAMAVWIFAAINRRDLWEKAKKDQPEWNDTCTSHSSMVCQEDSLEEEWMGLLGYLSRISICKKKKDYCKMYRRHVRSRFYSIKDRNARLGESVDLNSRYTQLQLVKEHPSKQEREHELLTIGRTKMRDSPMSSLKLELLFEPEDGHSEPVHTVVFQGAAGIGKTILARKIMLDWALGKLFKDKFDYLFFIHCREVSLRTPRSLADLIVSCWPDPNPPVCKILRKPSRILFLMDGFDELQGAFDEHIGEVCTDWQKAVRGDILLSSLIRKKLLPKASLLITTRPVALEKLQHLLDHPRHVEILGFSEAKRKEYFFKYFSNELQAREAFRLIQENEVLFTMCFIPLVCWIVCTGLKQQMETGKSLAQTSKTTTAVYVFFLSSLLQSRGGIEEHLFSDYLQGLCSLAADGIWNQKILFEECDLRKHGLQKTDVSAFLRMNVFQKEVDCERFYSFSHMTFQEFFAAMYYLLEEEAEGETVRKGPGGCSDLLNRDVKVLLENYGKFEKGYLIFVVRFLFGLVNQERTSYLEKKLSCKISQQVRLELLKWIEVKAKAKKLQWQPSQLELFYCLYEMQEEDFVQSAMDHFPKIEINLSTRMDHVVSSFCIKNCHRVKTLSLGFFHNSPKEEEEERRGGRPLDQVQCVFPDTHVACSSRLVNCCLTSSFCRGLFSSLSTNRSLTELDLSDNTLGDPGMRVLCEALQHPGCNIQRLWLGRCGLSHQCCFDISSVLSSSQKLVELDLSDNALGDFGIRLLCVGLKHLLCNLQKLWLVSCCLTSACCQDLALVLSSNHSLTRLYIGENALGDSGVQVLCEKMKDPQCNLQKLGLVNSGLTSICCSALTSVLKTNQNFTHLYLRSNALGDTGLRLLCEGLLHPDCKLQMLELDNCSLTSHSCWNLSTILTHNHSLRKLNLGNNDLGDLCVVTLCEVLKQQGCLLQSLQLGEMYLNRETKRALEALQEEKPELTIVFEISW

[4] = system: L02; assay: Cytotoxicity against human HL7702 cells assessed as reduction in cell viability at 500 uM measured after 24 hrs by CCK8 assay; format: toxicity, cell-based; settings: l02, 24 h
[5] = system: Hepatocyte; assay: Cytotoxicity against mouse primary hepatic cells assessed as reduction in cell viability at 200 uM measured after 24 hrs by CCK8 assay; format: toxicity, cell-based; settings: hepatocytes
[6] = Toxicity against female ICR mouse assessed as effect on liver weight at 200 to 500 mg/kg administered via gavage for 12 days; format: organism-based; settings: in vivo, po, 288 h, dose 200-500 mg/kg, time 12 day
[7] = Toxicity against female ICR mouse assessed as effect on spleen weight at 200 to 500 mg/kg administered via gavage for 12 days; format: organism-based; settings: in vivo, po, 288 h, dose 200-500 mg/kg, time 12 day
[8] = Toxicity against male ICR mouse assessed as effect on kidney weight at 200 to 500 mg/kg administered via gavage for 12 days; format: organism-based; settings: in vivo, po, 288 h, dose 200-500 mg/kg, time 12 day
[9] = Toxicity against male ICR mouse assessed as effect on ratio of plasma AST to ALT level at 200 to 500 mg/kg administered via gavage for 12 days; format: organism-based; settings: in vivo, po, 288 h, dose 200-500 mg/kg, time 12 day
[10] = Toxicity against male ICR mouse assessed as effect on plasma creatinine level at 200 to 500 mg/kg administered via gavage for 12 days; format: organism-based; settings: in vivo, po, 288 h, dose 200-500 mg/kg, time 12 day
[11] = system: J774.A1; assay: Effect on NLRP3 protein expression in mouse J774.A1 cells at 3 to 30 nM primed with LPS for 4.5 hrs followed by incubation with compound for 2.5 hrs and later stimulated with ATP for 30 mins by immunoblot analysis; format: functional, cell-based; settings: dose 3-30 nM, time 3.0 hrs
[12] = target: NACHT, LRR and PYD domains-containing protein 3 (Homo sapiens) (UniProt Q96P20); assay: Inhibition of NLRP3 inflammasome in PMA-induced differentiated human THP-1 cells assessed as inhibition of caspase-1 activation primed with LPS for 4.5 hrs followed by incubation with compound for 2.5 hrs and later stimulated with ATP for 1 hr by immunoblot analysis; format: cell-based; settings: dose 3-30 nM, time 3.5 hrs
Sequence of NACHT, LRR and PYD domains-containing protein 3 (Homo sapiens) (Q96P20 whole entry, the tested form may be a part): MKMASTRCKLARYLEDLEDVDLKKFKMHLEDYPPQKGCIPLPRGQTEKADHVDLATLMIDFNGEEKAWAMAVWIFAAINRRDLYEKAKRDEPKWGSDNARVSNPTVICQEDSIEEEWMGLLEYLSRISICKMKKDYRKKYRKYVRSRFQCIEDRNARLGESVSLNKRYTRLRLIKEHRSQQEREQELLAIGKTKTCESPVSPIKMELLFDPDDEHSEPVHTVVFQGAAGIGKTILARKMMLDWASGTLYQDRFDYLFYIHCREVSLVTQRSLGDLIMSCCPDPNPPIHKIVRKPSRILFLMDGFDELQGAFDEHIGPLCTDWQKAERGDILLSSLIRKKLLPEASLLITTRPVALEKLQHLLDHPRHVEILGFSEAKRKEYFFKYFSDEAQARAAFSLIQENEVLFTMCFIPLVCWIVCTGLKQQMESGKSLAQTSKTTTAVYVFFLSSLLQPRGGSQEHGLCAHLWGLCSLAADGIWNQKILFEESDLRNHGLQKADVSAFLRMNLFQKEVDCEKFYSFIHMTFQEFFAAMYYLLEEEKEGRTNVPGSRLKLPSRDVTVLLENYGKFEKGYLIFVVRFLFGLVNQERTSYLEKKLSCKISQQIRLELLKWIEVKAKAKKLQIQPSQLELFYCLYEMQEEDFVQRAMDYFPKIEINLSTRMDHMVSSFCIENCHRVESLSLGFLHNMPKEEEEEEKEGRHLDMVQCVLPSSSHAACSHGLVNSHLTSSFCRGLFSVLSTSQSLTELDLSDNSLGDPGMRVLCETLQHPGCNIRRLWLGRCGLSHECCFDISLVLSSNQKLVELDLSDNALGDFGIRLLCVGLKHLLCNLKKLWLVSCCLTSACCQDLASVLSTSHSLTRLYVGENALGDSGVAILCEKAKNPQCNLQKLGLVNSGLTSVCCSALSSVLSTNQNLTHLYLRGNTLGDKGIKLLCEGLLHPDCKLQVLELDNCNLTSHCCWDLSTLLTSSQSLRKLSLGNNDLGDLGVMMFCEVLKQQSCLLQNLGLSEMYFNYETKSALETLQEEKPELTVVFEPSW

[13] = target: NACHT, LRR and PYD domains-containing protein 3 (Mus musculus) (UniProt Q8R4B8); assay: Inhibition of NLRP3 inflammasome in mouse J774.A1 cells assessed as inhibition of IL-1 beta secretion at 30 nM primed with LPS for 4.5 hrs followed by incubation with compound for 24 hrs and later stimulated with nigericin for 1 hr by immunoblot analysis; format: cell-based; settings: time 25.0 hrs
Sequence of NACHT, LRR and PYD domains-containing protein 3 (Mus musculus) (Q8R4B8 whole entry, the tested form may be a part): as the sequence (Q8R4B8 whole entry, the tested form may be a part) above

[14] = target: T1, Interferon-inducible protein AIM2 (Mus musculus) (UniProt Q91VJ1); assay: Inhibition of AIM2 inflammasome in mouse J774.A1 cells assessed as inhibition of IL-1 beta secretion at 30 nM primed with LPS for 4.5 hrs followed by incubation with compound for 24 hrs and later stimulated with poly (dA:dT) for 6 hrs by immunoblot analysis; format: cell-based; settings: time 30.0 hrs
T1 sequence (whole entry): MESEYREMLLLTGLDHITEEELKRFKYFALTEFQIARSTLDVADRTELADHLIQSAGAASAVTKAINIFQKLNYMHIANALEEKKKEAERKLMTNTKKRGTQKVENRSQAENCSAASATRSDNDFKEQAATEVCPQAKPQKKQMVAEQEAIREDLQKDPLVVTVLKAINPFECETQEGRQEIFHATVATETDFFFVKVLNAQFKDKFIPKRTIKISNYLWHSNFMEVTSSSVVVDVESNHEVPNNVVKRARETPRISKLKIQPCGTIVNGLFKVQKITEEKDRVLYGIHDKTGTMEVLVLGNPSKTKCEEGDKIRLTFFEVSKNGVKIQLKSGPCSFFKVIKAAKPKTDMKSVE

[15] = system: THP-1; assay: Effect on ROS production in PMA-induced differentiated human THP-1 cells at 30 nM pretreated with compound for 24 hrs followed by stimulation with LPS for 4.5 hrs and ATP for 1 hr by MitoSOX dye based confocal microscopy; format: functional, cell-based; settings: time 29.5 hrs
[16] = Cmax in ICR mouse at 5 mg/kg, iv by LC-MS/MS analysis; format: ADME, organism-based; parameters: dose 5 mg/kg, route iv; settings: in vivo
[17] = AUC (0 to infinity) in ICR mouse at 5 mg/kg, iv by LC-MS/MS analysis; format: ADME, organism-based; parameters: dose 5 mg/kg, route iv; settings: in vivo
[18] = MRT (0 to infinity) in ICR mouse at 5 mg/kg, iv by LC-MS/MS analysis; format: ADME, organism-based; settings: in vivo
[19] = Half life in ICR mouse at 10 mg/kg, po by LC-MS/MS analysis; format: ADME, organism-based; settings: in vivo
[20] = Drug uptake in Sprague-Dawley rat jejunum at 50 mg/kg, po measured for 24 hrs by LC-MS/MS analysis; format: ADME, organism-based; settings: in vivo
[21] = Drug uptake in Sprague-Dawley rat kidney at 50 mg/kg, po measured for 24 hrs by LC-MS/MS analysis; format: ADME, organism-based; settings: in vivo
[22] = Drug uptake in Sprague-Dawley rat adipose tissue at 50 mg/kg, po measured for 24 hrs by LC-MS/MS analysis; format: ADME, organism-based; settings: in vivo
[23] = Drug uptake in Sprague-Dawley rat muscle at 50 mg/kg, po measured for 24 hrs by LC-MS/MS analysis; format: ADME, organism-based, Muscle tissue; settings: in vivo
[24] = Drug uptake in Sprague-Dawley rat brain at 50 mg/kg, po measured for 24 hrs by LC-MS/MS analysis; format: ADME, organism-based; settings: in vivo
[25] = system: Mus musculus; assay: Antiinflammatory activity against MCD diet-induced NASH C57BL/6 mouse model assessed as reduction in balloon dilatation in liver at 40 mg/kg, po administered via gavage for 5 weeks by H and E staining based analysis; format: functional, organism-based
[26] = system: Mus musculus; assay: Antiinflammatory activity against DSS-induced ulcerative colitis C57BL/6 mouse assessed as reduction in colon length shortening at 10 mg/kg, ip administered for 9 days and measured on day 10; format: functional, organism-based; settings: time 10.0 day
[27] = system: Mus musculus; assay: Antiinflammatory activity against DSS-induced ulcerative colitis C57BL/6 mouse assessed as reduction in mucosal barrier disruption in colon at 10 mg/kg, ip administered for 9 days and measured on day 10 by H and E staining based analysis; format: functional, organism-based; settings: time 10.0 day

## CN(C)Cc1ccc(S(=O)(=O)NC(=O)Nc2c3c(cc4c2CCC4)CCC3)cc1
[1]
  Activity: Non-Toxic
[2]
  Activity: Active
[3]
  IC50: 25 nM
[4]
  Activity: Non-Toxic
[5]
  Activity: Non-Toxic
[6]
  Activity: Non-Toxic
[7]
  Activity: Non-Toxic
[8]
  Activity: Non-Toxic
[9]
  Activity: Non-Toxic
[10]
  Activity: Non-Toxic
[11]
  Activity: inactive
[12]
  inhibition: Dose-Dependent Effect
[13]
  inhibition: Active
[14]
  inhibition: inactive
[15]
  Activity: inactive
[16]
  Cmax: 22600 ng/mL
[17]
  AUC(0-inf): 130 µg·h/mL
[18]
  MRT inf: 5.3 h
[19]
  half-life: 3.5 h
[20]
  Drug uptake: Active
[21]
  Drug uptake: Active
[22]
  Drug uptake: Active
[23]
  Drug uptake: Active
[24]
  Drug uptake: Active
[25]
  Activity: Active
[26]
  Activity: Active
[27]
  Activity: Active
